Tests used:
[1] = tested on: SDAs as compared to NSDAs; experiment: Binding activity of peptides line-blotted onto PVDF to SDAs as compared to NSDAs; set-up: species or system human; key to Activity: showed a substantially higher binding activity to SDAs as compared to their binding to NSDAs (indicated as YES in the table); No: showed no significant differences in their binding to samples from schizophrenic and non-schizophrenic individuals (designed as no in the table); conditions: for Activity: binding to SDAs versus NSDAs
Protocol: (§1) 1. Platelets and Anti-Platelet Autoantibodies Venous blood (20 ml) was drawn with heparin as anticoagulant from patients and control subjects. Platelet rich plasma (PRP) was obtained by centrifugation (100 g for 20 mins) at room temperature. Plasma free platelets were obtained by washing them three times with phosphate buffered saline (PBS) supplemented with 10 ml mM EDTA as anticoagulant (4000 g; 15 mins; 4° C.). For the isolation of anti-platelet antibodies, the platelets were incubated with 0.1 M glycine/10 mM EDTA, pH 2.8, for 10 min. at room temperature and then centrifuged (4000 g; 15 min; 4° C.). The supernatant containing the anti-platelet antibodies, was neutralized with saturated Na2PO4 solution and stored at −20 until use. 2. Preparative Isoelectric Focusing
(§2) The fractions were analyzed for immuno-reactivity by polyacrylamide (10%) gel electrophoresis, blotting the proteins onto PVDF membranes and probing the membrane with 1 ml auto-antibodies in 50 ml incubation buffer. Anti-human Fc conjugated to horseradish peroxidase (goat) from SIGMA (1:500 dilution) and Fast-DAB™ (SIGMA) or 4-Chloro-naphthol (SIGMA) were used as color reagent in order to detect bound human anti-platelet antibodies.
(§3) Various peptides were synthesized on Abimed 522 at a 10 micromol scale by Eurosequence b.v. Peptides were routinely dissolved in 1 ml water/DMF/DMSO (1:1:1;v/v/v). Peptides were line-blotted onto PVDF membranes and tested for immuno-reactivity as described above.
Based on the sequence of the epitope identified in the digested proteins, a number of peptides were synthesized by the method described in 1.8 above. The synthesized peptides were then evaluated for their binding activity to SDAs as compared to NSDAs as described above.

[2] = tested on: NSDAs (non-schizophrenic derived antibodies); experiment: Reactivity of proteins to NSDAs (platelet autoantibodies from control non-schizophrenic individuals), blot with anti-human Fc-HRP; format: binding; conditions: number of NSDA samples that reacted positively with the enzyme, of 8 controls
Protocol: as §1, §2
(§4) Every fifth fraction (0.1 ml) was dot blotted onto PVDF membranes using the DotBlot device (96 wells) from BioRad. Immuno-reactive fractions were then detected as described above (1.3)
(§5) The binding activity of the above two enzymes was then tested by reacting them with SDAs (prepared from samples obtained from schizophrenic patients) and to NSDA (prepared from control non-schizophrenic individuals).

[3] = tested on: SDAs (schizophrenic derived antibodies); experiment: Reactivity of proteins to SDAs (platelet autoantibodies from schizophrenic patients), blot with anti-human Fc-HRP; format: binding; conditions: number of SDA samples that reacted positively with the enzyme, of 8 patients
Protocol: as §1, §2, §4, §5

[4] = tested on: NSDA in plasma samples from non-schizophrenic individuals; experiment: Binding of peptide to plasma samples from non-schizophrenic individuals; set-up: species or system human; conditions: plasma samples of fifteen non-schizophrenic individuals, FIG. 2B
Protocol: as §2, §3
(§6) The capability of Peptide 14 (SEQ ID NO: 3) to bind SDA in plasma samples obtained from schizophrenic patients was then tested. […] Peptide 14 (SEQ ID NO: 10) was used as a negative control.

[5] = tested on: SDA in plasma samples obtained from schizophrenic patients; experiment: Binding of peptide to plasma samples from schizophrenic patients; set-up: species or system human; conditions: plasma samples of five schizophrenic patients, FIG. 2A
Protocol: as §2, §3, §6

[6] = tested on: PAAs obtained from non-schizophrenic individuals; experiment: Binding of peptide to isolated PAAs from non-schizophrenic individuals; set-up: species or system human; conditions: isolated PAAs from eight different non-schizophrenic individuals, FIG. 1B
Protocol: as §1, §2
(§7) Various peptides were synthesized on Abimed 522 at a 10 micromol scale by Eurosequence b.v. Peptides were routinely dissolved in 1 ml water/DMF/DMSO (1:1:1;v/v/v). […]

[7] = tested on: PAAs obtained from schizophrenic patients (SDA); experiment: Binding of peptide to isolated PAAs from schizophrenic patients; set-up: species or system human
Protocol: as §1, §2, §7

Row | Substance | Activity [1] | other results
1 | 7 (LVVGLCTGQIKTGAPCR; peptide capable of binding antibodies that are found in elevated levels in body fluids of schizophrenic patients.) [compound 7] | YES | –
2 | SGETEDTFIADLVVGLCTGQIKTGAPCR (being the immunologically active epitope) [SEQ ID NO: 2] | – | immunological activity of peptide from enzymatic digest of Enolase ([1]; binding SDAs to a higher extent than NSDAs, amino acids 372-399): immunologically active
3 | 5 (ADLVVGLCTGQIKTGAPCR; peptide capable of binding antibodies that are found in elevated levels in body fluids of schizophrenic patients.) [compound 5] | YES | –
4 | 12 (CTGQIKTGAPCR; peptide capable of binding antibodies that are found in elevated levels in body fluids of schizophrenic patients.) [compound 12] | No | –
5 | 8 (LVVGLCTGQIKTGPACR; peptide capable of binding antibodies that are found in elevated levels in body fluids of schizophrenic patients.) [compound 8] | YES | –
6 | 6 (DLVVGLCTGQIKTGAPCR; peptide capable of binding antibodies that are found in elevated levels in body fluids of schizophrenic patients.) [compound 6] | YES | –
7 | G-3-P-Dehydrogenase from chicken: glyceraldehyde-3-phosphate dehydrogenase (G3PD) enzyme from chicken | – | Controls (n = 8) Positive [2]: 2/8; Patients (n = 8) Positive [3]: 7/8
8 | G-3-P-Dehydrogenase from pig: glyceraldehyde-3-phosphate dehydrogenase (G3PD) enzyme from pig | – | Controls (n = 8) Positive [2]: 1/8; Patients (n = 8) Positive [3]: 8/8
9 | 15 (LVVGLCTGQIKTGPAC; peptide capable of binding antibodies that are found in elevated levels in body fluids of schizophrenic patients.) [compound 15] | No | –
10 | 3 (LVVGLCTCQIKTGPAC; peptide capable of binding antibodies that are found in elevated levels in body fluids of schizophrenic patients.) [compound 3] | YES | –
11 | 10 (SGETEDTFIADLVVGLCTGQ; peptide capable of binding antibodies that are found in elevated levels in body fluids of schizophrenic patients.) [compound 10] | No | –
12 | 2 (SGETEDTFIADLVVGLCTGQIKTGAPCR; being the immunologically active epitope) [compound 2] | YES | –
13 | LVVGLCTCQIKTGPAC (peptide capable of binding antibodies that are found in elevated levels in body fluids of schizophrenic patients.) [SEQ ID NO: 3] | No | plasma samples of non-schizophrenic individuals whose NSDA was not bound [4]: fourteen out of fifteen; SDA in plasma of schizophrenic patients positively bound [5]: four out of five; ranking of binding to antibodies found in high levels in schizophrenic patients ([1]; among the synthesized peptides): most capable of binding; binding to PAAs from non-schizophrenic individuals [6]: did not bind; PAAs from schizophrenic patients positively bound ([7]; isolated PAAs from eight different schizophrenic patients, FIG. 1A): seven out of eight; binding activity to SDA, dimer form versus non-dimer form ([7]; ring via two cysteins and dimer via free cystein after overnight in water/DMF/DMSO): the dimer form of the peptide was much more active in binding SDAs than the non-dimer form
14 | G-3-P-Dehydrogenase from human: glyceraldehyde-3-phosphate dehydrogenase (G3PD) enzyme from human | – | Controls (n = 8) Positive [2]: 1/8; Patients (n = 8) Positive [3]: 7/8
15 | 4 (IADLVVGLCTGQIKTGAPCR; peptide capable of binding antibodies that are found in elevated levels in body fluids of schizophrenic patients.) [compound 4] | YES | –
16 | 11 (VVGLCTGQIKTGAPCR; peptide capable of binding antibodies that are found in elevated levels in body fluids of schizophrenic patients.) [compound 11] | No | –
17 | 9 (LVVGLCTPQIKTGPACR; peptide capable of binding antibodies that are found in elevated levels in body fluids of schizophrenic patients.) [compound 9] | YES | –
18 | 13 (LVVGLCTGQIKTGAPC; peptide capable of binding antibodies that are found in elevated levels in body fluids of schizophrenic patients.) [compound 13] | No | –
